From patent US10821115B2, “Compounds that inhibit Mcl-1 protein” (priority 2017, dated 2020)
Where two headings read alike, the source gives them in different places.

Assays:
[1] = target: recombinant human Mcl-1 (residues 171-327) / Bim interaction (Homo sapiens (Human), UniProt Q07820); experiment: biochemical; type: binding; conditions: read-out: Mcl-1 HTRF IC50
[2] = test system: human multiple myeloma cell line, OPM-2; experiment: Cell viability assay (OPM-2 10 FBS), CellTiter-Glo; type: cell-based
Method in brief: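 IC50 values come from 4-parameter logistic fits of luminescence signals reflecting cell viability. Treatment lasted 16 h at 37 °C in complete medium with 10% FBS, starting from 3000 cells/well.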

[3] = 0.1 nM Mcl-1(171-327), 0.05 nM biotin-Bim (51-76)
[4] = Homo sapiens, OPM-2, 16 h, read-out: OPM-2 10% FBS IC50 IP, OPM-2 cells, 10% FBS, 16 h incubation
[5] = TR-FRET, Mcl-1(171-327) / biotin-Bim (51-76)
[6] = read-out: OPM-2 10% FBS IC50 IP, OPM-2 cells, 10% FBS, 16 h, CellTiter-Glo
[7] = Homo sapiens, OPM-2, 16 h, read-out: OPM-2 10% FBS IC50 IP, OPM-2 cells, 10% FBS, 16 h, CellTiter-Glo

recombinant human Mcl-1 (residues 171-327) / Bim interaction, sequence (Q07820 171-327): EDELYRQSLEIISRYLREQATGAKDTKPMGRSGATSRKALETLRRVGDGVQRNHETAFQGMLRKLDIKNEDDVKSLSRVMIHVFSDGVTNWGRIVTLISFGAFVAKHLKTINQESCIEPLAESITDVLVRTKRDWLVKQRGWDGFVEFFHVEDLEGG

| Compound | IC50 [1, 3] [nM] | IC50 [1, 5] [nM] | IC50 [2, 7] [nM] | other results |
| --- | --- | --- | --- | --- |
| COCC(C)(C)N1CCN(C[C@]2(OC)/C=C/C[C@H](C)[C@@H](C)S(=O)(=O)NC(=O)c3ccc4c(c3)N(C[C@@H]3CC[C@H]32)C[C@@]2(CCCc3cc(Cl)ccc32)CO4)CC1 [Example 297, (1S,3′R,6′R,7′S,8′E,11′S,12′R)-6-chloro-7′-methoxy-7′-((4-(2-methoxy-1,1-dimethylethyl)-1-piperazinyl)methyl)-11′,12′-dimethyl-3,4-dihydro-2H,15′H-spiro[naphthalene-1,22′-[20]oxa[13]thia[1,14]diazatetracyclo [14.7.2.0~3,6~.0~19,24~]pentacosa[8,16,18,24]tetraen]-15′-one 13′,13′-dioxide] | 0.128 | – | – | IC50 [2, 4]: 66 nM |
| CO[C@]1(CN2C[C@@H](C)N[C@@H](C)C2)/C=C/C[C@H](C)[C@@H](C)S(=O)(=O)NC(=O)c2ccc3c(c2)N(C[C@@H]2CC[C@H]21)C[C@@]1(CCCc2cc(Cl)ccc21)CO3 [Example 329, (1S,3′R,6′R,7′R,8′E,11′S,12′R)-6-chloro-7′-(((3R,5S)-3,5-dimethyl-1-piperazinyl)methyl)-7′-methoxy-11′,12′-dimethyl-3,4-dihydro-2H,15′H-spiro[naphthalene-1,22′-[20]oxa[13]thia[1,14]diazatetracyclo [14.7.2.0~3,6~.0~19,24~]pentacosa[8,16,18,24]tetraen]-15′-one 13′,13′-dioxide] | 0.137 | – | – | IC50 [2, 4]: 243 nM |
| CO[C@]1(CN2CCCN(C(C)C)CC2)/C=C/C[C@H](C)[C@@H](C)S(=O)(=O)NC(=O)c2ccc3c(c2)N(C[C@@H]2CC[C@H]21)C[C@@]1(CCCc2cc(Cl)ccc21)CO3 [Example 327, (1S,3′R,6′R,7′R,8′E,11′S,12′R)-6-chloro-7′-methoxy-11′,12′-dimethyl-7′-((4-(1-methylethyl)-1,4-diazepan-1-yl)methyl)-3,4-dihydro-2H,15′H-spiro[naphthalene-1,22′-[20]oxa[13]thia[1,14]diazatetracyclo [14.7.2.0~3,6~.0~19,24~]pentacosa[8,16,18,24]tetraen]-15′-one 13′,13′-dioxide] | 0.214 | – | – | IC50 [2, 4]: 174 nM |
| C[C@@H]1[C@@H](C)C/C=C/[C@@]2(COCCO2)[C@@H]2CC[C@H]2CN2C[C@@]3(CCCc4cc(Cl)ccc43)COc3ccc(cc32)C(=O)NS1(=O)=O [Example 100264, (2S,3′R,6′R,8′E,11′S,12′R,22′S)-6″-chloro-11′,12′-dimethyl-3″,4″-dihydro-2″H,15′H-dispiro[1,4-dioxane-2,7′-[20]oxa[13]thia[1,14]diazatetracyclo [14.7.2.0~3,6~.0~19,24~]pentacosa[8,16,18,24]tetraene-22′,1″-naphthalen]-15′-one 13′,13′-dioxide] | – | 0.384 | – | IC50 [2, 6]: 600 nM |
| CCC[C@]1(O)/C=C/C[C@H](C)[C@@H](C)S(=O)(=O)NC(=O)c2ccc3c(c2)N(C[C@@H]2CC[C@H]21)C[C@@]1(CCCc2cc(Cl)ccc21)CO3 [Example 100232, (1S,3′R,6′R,7′S,8′E,11′S,12′R)-6-chloro-7′-hydroxy-11′,12′-dimethyl-7′-propyl-3,4-dihydro-2H,15′H-spiro[naphthalene-1,22′-[20]oxa[13]thia[1,14]diazatetracyclo [14.7.2.0~3,6~.0~19,24~]pentacosa[8,16,18,24]tetraen]-15′-one 13′,13′-dioxide] | – | – | 389 | IC50 [1]: 0.152 nM |
| COC(=O)c1nc(C[C@]2(OC)/C=C/C[C@H](C)[C@@H](C)S(=O)(=O)NC(=O)c3ccc4c(c3)N(C[C@@H]3CC[C@H]32)C[C@@]2(CCCc3cc(Cl)ccc32)CO4)oc1C [Example 100583, methyl 2-(((1S,3′R,6′R,7′S,8′E,11′S,12′R)-6-chloro-7′-methoxy-11′,12′-dimethyl-13′,13′-dioxido-15′-oxo-3,4-dihydro-2H-spiro[naphthalene-1,22′-[20]oxa[13]thia[1,14]diazatetracyclo [14.7.2.0~3,6~.0~19,24~]pentacosa[8,16,18,24]tetraen]-7′-yl)methyl)-5-methyl-1,3-oxazole-4-carboxylate] | – | 0.124 | 411 | – |
| C[C@@H]1[C@@H](C)C/C=C/[C@@](O)(CC(=O)N2CCCC2)[C@@H]2CC[C@H]2CN2C[C@@]3(CCCc4cc(Cl)ccc43)COc3ccc(cc32)C(=O)NS1(=O)=O [Example 100252, (1S,3′R,6′R,7′S,8′E,11′S,12′R)-6-chloro-7′-hydroxy-11′,12′-dimethyl-7′-(2-oxo-2-(1-pyrrolidinyl)ethyl)-3,4-dihydro-2H,15′H-spiro[naphthalene-1,22′-[20]oxa[13]thia[1,14]diazatetracyclo [14.7.2.0~3,6~.0~19,24~]pentacosa[8,16,18,24]tetraen]-15′-one 13′,13′-dioxide] | – | 0.112 | – | IC50 [2, 6]: 77 nM |
| CO[C@@]1(c2cnc(Cl)n2C)/C=C/C[C@H](C)[C@@H](C)S(=O)(=O)NC(=O)c2ccc3c(c2)N(C[C@@H]2CC[C@H]21)C[C@@]1(CCCc2cc(Cl)ccc21)CO3 (single isomer, unassigned) [Example 100558] | – | 0.086 | 274 | – |
| CO[C@]1(CN2CC(=O)N3CCCC[C@@H]3C2)/C=C/C[C@H](C)[C@@H](C)S(=O)(=O)NC(=O)c2ccc3c(c2)N(C[C@@H]2CC[C@H]21)C[C@@]1(CCCc2cc(Cl)ccc21)CO3 [Example 149] | 0.128 | – | – | IC50 [2, 4]: 119 nM |
| CO[C@@]1(CC(=O)[C@H](C)CN(C)C)/C=C/C[C@H](C)[C@@H](C)S(=O)(=O)NC(=O)c2ccc3c(c2)N(C[C@@H]2CC[C@H]21)C[C@@]1(CCCc2cc(Cl)ccc21)CO3 (single isomer, unassigned) [Example 100478] | – | 3.47 | 4090 | – |
| C[C@@H]1[C@@H](C)C/C=C/[C@]2(CN3CCN(C)C[C@@H]3CO2)[C@@H]2CC[C@H]2CN2C[C@@]3(CCCc4cc(Cl)ccc43)COc3ccc(cc32)C(=O)NS1(=O)=O (single isomer, unassigned) [Example 132] | 0.613 | – | – | IC50 ([2]; read-out: OPM-2 10% FBS IC50 IP, OPM-2 cells, 10% FBS, 16 h incubation): 263 nM |
| C[C@@H]1[C@@H](C)C/C=C/[C@@](O)(c2cccnn2)[C@@H]2CC[C@H]2CN2C[C@@]3(CCCc4cc(Cl)ccc43)COc3ccc(cc32)C(=O)NS1(=O)=O (single isomer, unassigned) [Example 100348] | – | 0.135 | 125 | – |
| Cc1onc(C[C@@]2(O)/C=C/C[C@H](C)[C@@H](C)S(=O)(=O)NC(=O)c3ccc4c(c3)N(C[C@@H]3CC[C@H]32)C[C@@]2(CCCc3cc(Cl)ccc32)CO4)c1C [Example 100573, (1S,3′R,6′R,7′R,8′E,11′S,12′R)-6-chloro-7′-((4,5-dimethyl-1,2-oxazol-3-yl)methyl)-7′-hydroxy-11′,12′-dimethyl-3,4-dihydro-2H,15′H-spiro[naphthalene-1,22′-[20]oxa[13]thia[1,14]diazatetracyclo [14.7.2.0~3,6~.0~19,24~]pentacosa[8,16,18,24]tetraen]-15′-one 13′,13′-dioxide] | – | 2.07 | 7390 | – |
| C[C@@H]1[C@@H](C)CCC[C@@](O)(CC(=O)N2CCN(C)CC2)[C@@H]2CC[C@H]2CN2C[C@@]3(CCCc4cc(Cl)ccc43)COc3ccc(cc32)C(=O)NS1(=O)=O [Example 100167, (1S,3′R,6′R,7′R,11′S,12′R)-6-chloro-7′-hydroxy-11′,12′-dimethyl-7′-(2-(4-methyl-1-piperazinyl)-2-oxoethyl)-3,4-dihydro-2H,15′H-spiro[naphthalene-1,22′-[20]oxa[13]thia[1,14]diazatetracyclo [14.7.2.0~3,6~.0~19,24~]pentacosa[16,18,24]trien]-15′-one 13′,13′-dioxide] | – | 0.377 | 339 | – |
